Biological target: T1, Recombinant human mPGES-1 (Homo sapiens, UniProt O14684)
T1 sequence (O14684 1-152): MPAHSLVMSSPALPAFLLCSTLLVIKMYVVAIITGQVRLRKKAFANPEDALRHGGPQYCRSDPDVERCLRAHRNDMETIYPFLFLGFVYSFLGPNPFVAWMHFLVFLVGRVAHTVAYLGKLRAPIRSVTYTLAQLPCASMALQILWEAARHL
Experiment: In-vitro mPGES-1 enzyme inhibition assay (PGE2 formation from PGH2, HTRF detection)
Assay type: biochemical
Conditions: for inhibition at 1 µM: 1 μM test compound, read-out: Percentage inhibition at 1 μM; for inhibition at 1 µM / inhibition at 10 µM: recombinant human mPGES-1 microsomal fraction; for inhibition at 10 µM: 10 μM test compound, read-out: Percentage inhibition at 10 μM; for IC50: class symbols, selected examples
Method in brief: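 IC50 values were derived by nonlinear regression of percent inhibition relative to enzyme reactions run without inhibitor. PGE2 formed from PGH2 with GSH was quantified by antibody-based HTRF after stannous chloride quench. Enzyme source was human mPGES-1 microsomes at 40-60 μg/mL protein; DMSO 0.5% (v/v).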

| SMILES | inhibition at 1 µM | inhibition at 10 µM | IC50 |
| --- | --- | --- | --- |
| CC1(C)Cc2c(c(C(=O)NCc3ccccc3C(F)(F)F)cc3nc(Nc4ccccc4Cl)[nH]c23)O1 [Example-88, 2-[(2-Chlorophenyl)amino]-7,7-dimethyl-N-[2-(trifluoromethyl)benzyl]-7,8-dihydro-1H-furo[3,2-e]benzimidazole-5-carboxamide] | 85.5% | 99.4% | > 100 nM |
| CC1(C)Cc2c(c(C(=O)Nc3ccc(C(F)(F)F)cc3)cc3nc(Nc4ccccc4Cl)[nH]c23)O1 [Example-89, 2-[(2-Chlorophenyl)amino]-7,7-dimethyl-N-[4-(trifluoromethyl)phenyl]-7,8-dihydro-1H-furo[3,2-e]benzimidazole-5-carboxamide] | 97.1% | 97.1% | < 50 nM |
| CC(C)c1ccc(NC(=O)c2cc3nc(Nc4c(Cl)cccc4Cl)[nH]c3c3c2OC(C)(C)C3)cc1 [Example-90, 2-[(2,6-Dichlorophenyl)amino]-7,7-dimethyl-N-[4-(propan-2-yl)phenyl]-7,8-dihydro-1H-furo[3,2-e]benzimidazole-5-carboxamide] | 97.7% | 98.4% | < 50 nM |
| CC1(C)Cc2c(c(C(=O)Nc3ccc(C(F)(F)F)cc3)cc3nc(Nc4ccc(Cl)cc4Cl)[nH]c23)O1 [Example-91, 2-[(2,4-Dichlorophenyl)amino]-7,7-dimethyl-N-[4-(trifluoromethyl)phenyl]-7,8-dihydro-1H-furo[3,2-e]benzimidazole-5-carboxamide] | 43.9% | 60.2% | – |
| Cc1ccc(Nc2nc3cc(C(=O)NCc4ccc(C(F)(F)F)cc4)c4c(c3[nH]2)CC(C)(C)O4)c(Cl)c1 [Example-92, 2-[(2-Chloro-4-methylphenyl)amino]-7,7-dimethyl-N-[4-(trifluoromethyl)benzyl]-7,8-dihydro-1H-furo[3,2-e]benzimidazole-5-carboxamide] | 75.4% | 76% | – |
| CC1(C)Cc2c(c(C(=O)NC3CCC(F)(F)CC3)cc3nc(Nc4c(Cl)cccc4Cl)[nH]c23)O1 [Example-93, 2-[(2,6-Dichlorophenyl)amino]-N-(4,4-difluorocyclohexyl)-7,7-dimethyl-7,8-dihydro-1H-furo[3,2-e]benzimidazole-5-carboxamide] | 83.1% | 80.9% | – |
| CC1(C)Cc2c(c(C(=O)NCC(F)(F)C(F)(F)F)cc3nc(Nc4ccc(F)cc4Cl)[nH]c23)O1 [Example-94, 2-[(2-Chloro-4-fluorophenyl)amino]-7,7-dimethyl-N-(2,2,3,3,3-pentafluoropropyl)-7,8-dihydro-1H-furo[3,2-e]benzimidazole-5-carboxamide] | 66% | 76.4% | – |
| CC1(C)Cc2c(c(C(=O)Nc3nc4ccc(F)cc4s3)cc3nc(Nc4c(Cl)cccc4Cl)[nH]c23)O1 [Example-95, 2-[(2,6-Dichlorophenyl)amino]-N-(6-fluoro-1,3-benzothiazol-2-yl)-7,7-dimethyl-7,8-dihydro-1H-furo[3,2-e]benzimidazole-5-carboxamide] | 90.6% | 91.8% | < 50 nM |
| CC1(C)Cc2c(c(C(=O)Nc3ccc(N4CCCC4)nc3)cc3nc(Nc4c(Cl)cccc4Cl)[nH]c23)O1 [Example-96, 2-[(2,6-Dichlorophenyl)amino]-7,7-dimethyl-N-[6-(pyrrolidin-1-yl)pyridin-3-yl]-7,8-dihydro-1H-furo[3,2-e]benzimidazole-5-carboxamide] | 90.4% | 95.1% | < 50 nM |
| Cc1ccc(Cl)c(Nc2nc3cc(C(=O)Nc4ccccc4C(F)(F)F)c4c(c3[nH]2)CC(C)(C)O4)c1 [Example-97, 2-[(2-Chloro-5-methylphenyl)amino]-7,7-dimethyl-N-[2-(trifluoromethyl)phenyl]-7,8-dihydro-1H-furo[3,2-e]benzimidazole-5-carboxamide] | 96.7% | 95.3% | < 50 nM |
| CC1(C)Cc2c(c(C(=O)Nc3ccccc3C(F)(F)F)cc3nc(Nc4ccccc4C(C)(C)C)[nH]c23)O1 [Example-98, 2-[(2-tert-Butylphenyl)amino]-7,7-dimethyl-N-[2-(trifluoromethyl)phenyl]-7,8-dihydro-1H-furo[3,2-e]benzimidazole-5-carboxamide] | 12% | 13.9% | – |
| COCCn1c(Nc2c(Cl)cccc2Cl)nc2cc(C(=O)Nc3ccc(C(F)(F)F)cc3)c3c(c21)CC(C)(C)O3 [Example-99, 2-[(2,6-Dichlorophenyl)amino]-1-(2-methoxyethyl)-7,7-dimethyl-N-[4-(trifluoromethyl)phenyl]-7,8-dihydro-1H-furo[3,2-e]benzimidazole-5-carboxamide] | 95.3% | 99.7% | < 50 nM |
| COCCn1c(Nc2c(Cl)cccc2Cl)nc2cc(C(=O)Nc3ccccc3C(F)(F)F)c3c(c21)CC(C)(C)O3 [Example-100, 2-[(2,6-Dichlorophenyl)amino]-1-(2-methoxyethyl)-7,7-dimethyl-N-[2-(trifluoromethyl)phenyl]-7,8-dihydro-1H-furo[3,2-e]benzimidazole-5-carboxamide] | 96.6% | 95.6% | < 50 nM |
| CC1(C)Cc2c(c(C(=O)Nc3ccc(C(F)(F)F)cn3)cc3nc(Nc4c(Cl)cccc4Cl)[nH]c23)O1 [Example-101, 2-[(2,6-Dichlorophenyl)amino]-7,7-dimethyl-N-[5-(trifluoromethyl)pyridin-2-yl]-7,8-dihydro-1H-furo[3,2-e]benzimidazole-5-carboxamide] | 97.6% | 98% | < 50 nM |
| CC1(C)Cc2c(c(C(=O)Nc3ccc(C(F)(F)F)cc3)cc3nc(Nc4ccccc4C(C)(C)C)[nH]c23)O1 [Example-102, 2-[(2-tert-Butylphenyl)amino]-7,7-dimethyl-N-[4-(trifluoromethyl)phenyl]-7,8-dihydro-1H-furo[3,2-e]benzimidazole-5-carboxamide] | 19.3% | 22.8% | – |
| Cc1ccc(Nc2nc3cc(C(=O)Nc4ccc(C(F)(F)F)cc4)c4c(c3[nH]2)CC(C)(C)O4)c(C)n1 [Example-103, 2-[(2,6-Dimethylpyridin-3-yl)amino]-7,7-dimethyl-N-[4-(trifluoromethyl)phenyl]-7,8-dihydro-1H-furo[3,2-e]benzimidazole-5-carboxamide] | 7.88% | 25.8% | – |

More lines, now with the values ahead:

| inhibition at 1 µM | inhibition at 10 µM | IC50 | SMILES |
| --- | --- | --- | --- |
| 100% | 92% | < 50 nM | CC1(C)Cc2c(c(C(=O)Nc3ccc(F)c(C(F)(F)F)c3)cc3nc(Nc4c(F)cccc4Cl)[nH]c23)O1 [Example-104, 2-[(2-Chloro-6-fluorophenyl)amino]-N-[4-fluoro-3-(trifluoromethyl)phenyl]-7,7-dimethyl-7,8-dihydro-1H-furo[3,2-e]benzimidazole-5-carboxamide] |
| 91.2% | 95.5% | > 100 nM | CC1(C)Cc2c(c(C(=O)Nc3ccc(F)cc3C#N)cc3nc(Nc4c(F)cccc4Cl)[nH]c23)O1 [Example-105, 2-[(2-Chloro-6-fluorophenyl)amino]-N-(2-cyano-4-fluorophenyl)-7,7-dimethyl-7,8-dihydro-1H-furo[3,2-e]benzimidazole-5-carboxamide] |
| 9.35% | 46.2% | – | Cc1ccc(Nc2nc3cc(C(=O)Nc4ccccc4C(F)(F)F)c4c(c3[nH]2)CC(C)(C)O4)c(C)n1 [Example-106] |
| 93.9% | 96.3% | < 50 nM | Cc1cccc(Cl)c1Nc1nc2cc(C(=O)Nc3ccc(C(F)(F)F)cc3)c3c(c2[nH]1)CC(C)(C)O3 [Example-108, 2-[(2-Chloro-6-methylphenyl)amino]-7,7-dimethyl-N-[4-(trifluoromethyl)phenyl]-7,8-dihydro-1H-furo[3,2-e]benzimidazole-5-carboxamide] |
| 93.8% | 98.8% | 50 to 100 nM | Cc1cccc(Cl)c1Nc1nc2cc(C(=O)Nc3c(F)cc(F)cc3F)c3c(c2[nH]1)CC(C)(C)O3 [Example-109, 2-[(2-Chloro-6-methylphenyl)amino]-7,7-dimethyl-N-(2,4,6-trifluorophenyl)-7,8-dihydro-1H-furo[3,2-e]benzimidazole-5-carboxamide] |
| 96.6% | 97.2% | < 50 nM | Cc1cccc(Cl)c1Nc1nc2cc(C(=O)Nc3cc(C(F)(F)F)ccc3F)c3c(c2[nH]1)CC(C)(C)O3 [Example-110, 2-[(2-Chloro-6-methylphenyl)amino]-N-[2-fluoro-5-(trifluoromethyl)phenyl]-7,7-dimethyl-7,8-dihydro-1H-furo[3,2-e]benzimidazole-5-carboxamide] |
| 96.4% | 99.8% | < 50 nM | CC1(C)Cc2c(c(C(=O)Nc3cc(C(F)(F)F)ccc3F)cc3nc(Nc4c(F)cccc4Cl)[nH]c23)O1 [Example-111, 2-[(2-Chloro-6-fluorophenyl)amino]-N-[2-fluoro-5-(trifluoromethyl)phenyl]-7,7-dimethyl-7,8-dihydro-1H-furo[3,2-e]benzimidazole-5-carboxamide] |
| 96.8% | 96.2% | < 50 nM | CC1(C)Cc2c(c(C(=O)Nc3ccc(C(F)(F)F)cc3F)cc3nc(Nc4c(F)cccc4Cl)[nH]c23)O1 [Example-112, 2-[(2-Chloro-6-fluorophenyl)amino]-N-[2-fluoro-4-(trifluoromethyl)phenyl]-7,7-dimethyl-7,8-dihydro-1H-furo[3,2-e]benzimidazole-5-carboxamide] |

Source: US8519149B2, “Tricyclic compounds as mPGES-1 inhibitors” (Glenmark Pharmaceuticals S.A., priority 2010, dated 2013)
